# Data as given in US6737383B1, “Herbicidal oxadiazolidines” (priority 1999, dated 2004).
# Assays:
# cocklebur = test: Test B pre/postemergence cocklebur; assay type: in vivo, Xanthium strumarium
# Summary of the method: (§1)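 Response is a visual 0-to-10 score relative to untreated plants, where 0 means no effect and 10 means complete control, taken twelve to sixteen days after application. Treatments went onto soil at planting and onto foliage of 1- to 4-leaf plants, using a surfactant-containing non-phytotoxic solvent.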
# corn = test: Test B pre/postemergence corn; assay type: in vivo, Zea mays
# Summary of the method: as §1
# crabgrass = test: Test B pre/postemergence crabgrass; assay type: in vivo, Digitaria sanguinalis
# Summary of the method: as §1
# giant foxtail = test: Test B pre/postemergence giant foxtail; assay type: in vivo, Setaria faberii
# Summary of the method: as §1
# morningglory = test: Test B pre/postemergence morningglory; assay type: in vivo, Ipomoea hederacea
# Summary of the method: as §1
# pigweed = test: Test B pre/postemergence pigweed; assay type: in vivo, Amaranthus retroflexus
# Summary of the method: as §1
# rape = test: Test B pre/postemergence rape; assay type: in vivo, Brassica napus
# Summary of the method: as §1
# soybean = test: Test B pre/postemergence soybean; assay type: in vivo, Glycine max
# Summary of the method: as §1
# velvetleaf = test: Test B pre/postemergence velvetleaf; assay type: in vivo, Abutilon theophrasti
# Summary of the method: as §1
# wheat = test: Test B pre/postemergence wheat; assay type: in vivo, Triticum aestivum
# Summary of the method: as §1
# wild oat = test: Test B pre/postemergence wild oat; assay type: in vivo, Avena fatua
# Summary of the method: as §1
# purple nutsedge = test: Test B pre/postemergence purple nutsedge; assay type: in vivo, Cyperus rotundus
# Summary of the method: as §1
# rice = test: Test B flood test rice; assay type: in vivo, Oryza sativa
# Summary of the method: (§2)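 Each value is a visual injury score relative to controls, with 10 meaning complete control and 0 no effect. Evaluation took place twelve to sixteen days after the 2-leaf-stage plants were treated and kept in the greenhouse.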
# smallflower flatsedge = test: Test B flood test smallflower flatsedge; assay type: in vivo, Cyperus difformis
# Summary of the method: as §2
# duck salad = test: Test B flood test duck salad; assay type: in vivo, Heteranthera limosa
# Summary of the method: as §2
# [1] = Postemergence, Rate 250 g/ha, scale 0 to 10
# [2] = Postemergence, Rate 500 g/ha, scale of 0 to 10 where 0 is no effect and 10 is complete control
# [3] = Postemergence, Rate 1000 g/ha, scale 0 to 10 (0 no effect, 10 complete control)
# [4] = Preemergence, Rate 125 g/ha, scale of 0 to 10 where 0 is no effect and 10 is complete control
# [5] = Preemergence, Rate 250 g/ha, scale 0 to 10, 0 is no effect, 10 is complete control
# [6] = Preemergence, Rate 500 g/ha, scale 0 to 10, 0 is no effect, 10 is complete control
# [7] = Rate 125 g/ha, Postemergence, scale 0 to 10, 0 is no effect, 10 is complete control
# [8] = Rate 1000 g/ha, Preemergence, scale 0 to 10 (0 no effect, 10 complete control)
# [9] = Pre-emergence, Rate 1000 g/ha, scale 0 to 10 (0 no effect, 10 complete control)
# [10] = Rate 125 g/ha, under heading Pre-emergence, flood test species, visual evaluation after twelve to sixteen days
# [11] = Rate 250 g/ha, Pre-emergence (flood test species), scale 0 to 10, 0 is no effect, 10 is complete control
# [12] = Rate 500 g/ha, Pre-emergence, flood test species, scale 0 to 10 (0 no effect, 10 complete control)
smiles,measurement,setting,value
CCOP(=O)(Cn1c(=O)on(C(=O)N(c2ccccc2)C(C)C)c1=O)OCC [Compound 447],Cocklebur plant response rating,cocklebur; [1],0
same,Cocklebur plant response rating,cocklebur; [2],0
same,Cocklebur plant response rating,cocklebur; [3],0
same,"Plant response rating, Cocklebur",cocklebur; [4],0
same,Cocklebur plant response rating,cocklebur; [5],0
same,Cocklebur plant response rating,cocklebur; [6],0
same,Cocklebur plant response rating,cocklebur; [7],0
same,"Plant response rating, Cocklebur",cocklebur; [8],0
same,Corn plant response rating,corn; [1],0
same,Corn plant response rating,corn; [2],0
same,Corn plant response rating,corn; [3],0
same,"Plant response rating, Corn",corn; [4],0
same,Corn plant response rating,corn; [5],0
same,Corn plant response rating,corn; [6],0
same,Corn plant response rating,corn; [7],0
same,"Plant response rating, Corn",corn; [8],0
same,Crabgrass plant response rating,crabgrass; [1],0
same,Crabgrass plant response rating,crabgrass; [2],0
same,Crabgrass plant response rating,crabgrass; [3],0
same,"Plant response rating, Crabgrass",crabgrass; [4],3
same,Crabgrass plant response rating,crabgrass; [5],8
same,Crabgrass plant response rating,crabgrass; [6],9
same,Crabgrass plant response rating,crabgrass; [7],0
same,"Plant response rating, Crabgrass",crabgrass; [8],9
same,Giant foxtail plant response rating,giant foxtail; [1],0
same,Giant foxtail plant response rating,giant foxtail; [2],0
same,Giant foxtail plant response rating,giant foxtail; [3],0
same,"Plant response rating, Giant foxtail",giant foxtail; [4],3
same,Giant foxtail plant response rating,giant foxtail; [5],7
same,Giant foxtail plant response rating,giant foxtail; [6],8
same,Giant foxtail plant response rating,giant foxtail; [7],0
same,"Plant response rating, Giant foxtail",giant foxtail; [8],10
same,Morningglory plant response rating,morningglory; [1],4
same,Morningglory plant response rating,morningglory; [2],7
same,Morningglory plant response rating,morningglory; [3],10
same,"Plant response rating, Morningglory",morningglory; [4],0
same,Morningglory plant response rating,morningglory; [5],0
same,Morningglory plant response rating,morningglory; [6],0
same,Morningglory plant response rating,morningglory; [7],2
same,"Plant response rating, Morningglory",morningglory; [8],2
same,Redroot pigweed plant response rating,pigweed; [1],0
same,Redroot pigweed plant response rating,pigweed; [2],0
same,Redroot pigweed plant response rating,pigweed; [3],0
same,"Plant response rating, Redroot pigweed",pigweed; [4],0
same,Redroot pigweed plant response rating,pigweed; [5],0
same,Redroot pigweed plant response rating,pigweed; [6],0
same,Redroot pigweed plant response rating,pigweed; [7],0
same,"Plant response rating, Redroot pigweed",pigweed; [8],0
same,Rape plant response rating,rape; [1],0
same,Rape plant response rating,rape; [2],0
same,Rape plant response rating,rape; [3],0
same,"Plant response rating, Rape",rape; [4],0
same,Rape plant response rating,rape; [5],0
same,Rape plant response rating,rape; [6],0
same,Rape plant response rating,rape; [7],0
same,"Plant response rating, Rape",rape; [8],0
same,Soybean plant response rating,soybean; [1],2
same,Soybean plant response rating,soybean; [2],4
same,Soybean plant response rating,soybean; [3],6
same,"Plant response rating, Soybean",soybean; [4],0
same,Soybean plant response rating,soybean; [5],0
same,Soybean plant response rating,soybean; [6],0
same,Soybean plant response rating,soybean; [7],1
same,Velvetleaf plant response rating,velvetleaf; [1],0
same,Velvetleaf plant response rating,velvetleaf; [2],0
same,Velvetleaf plant response rating,velvetleaf; [3],0
same,"Plant response rating, Velvetleaf",velvetleaf; [4],0
same,Velvetleaf plant response rating,velvetleaf; [5],0
same,Velvetleaf plant response rating,velvetleaf; [6],0
same,Velvetleaf plant response rating,velvetleaf; [7],0
same,"Plant response rating, Velvetleaf",velvetleaf; [8],0
same,Wheat plant response rating,wheat; [1],0
same,Wheat plant response rating,wheat; [2],0
same,Wheat plant response rating,wheat; [3],0
same,"Plant response rating, Wheat",wheat; [4],0
same,Wheat plant response rating,wheat; [5],0
same,Wheat plant response rating,wheat; [6],0
same,Wheat plant response rating,wheat; [7],0
same,"Plant response rating, Wheat",wheat; [8],0
same,Wild oats plant response rating,wild oat; [1],0
same,Wild oats plant response rating,wild oat; [2],0
same,Wild oats plant response rating,wild oat; [3],0
same,"Plant response rating, Wild oats",wild oat; [4],0
same,Wild oats plant response rating,wild oat; [5],2
same,Wild oats plant response rating,wild oat; [6],7
same,Wild oats plant response rating,wild oat; [7],0
same,"Plant response rating, Wild oats",wild oat; [8],10
same,Nutsedge plant response rating,purple nutsedge; [1],0
same,Nutsedge plant response rating,purple nutsedge; [2],0
same,Nutsedge plant response rating,purple nutsedge; [3],0
same,"Plant response rating, Nutsedge",purple nutsedge; [4],0
same,Nutsedge plant response rating,purple nutsedge; [5],0
same,Nutsedge plant response rating,purple nutsedge; [6],0
same,Nutsedge plant response rating,purple nutsedge; [7],0
same,"Plant response rating, Nutsedge",purple nutsedge; [8],0
same,Rice plant response rating,rice; [9],0
same,"Rice plant response rating (0 to 10 scale, 0 is no effect, 10 is complete control)",rice; [10],0
same,Rice plant response rating,rice; [11],0
same,Rice plant response rating,rice; [12],0
same,S. Flatsedge plant response rating,smallflower flatsedge; [9],0
same,"S. Flatsedge plant response rating (0 to 10 scale, 0 is no effect, 10 is complete control)",smallflower flatsedge; [10],0
same,S. Flatsedge plant response rating,smallflower flatsedge; [11],0
same,S. Flatsedge plant response rating,smallflower flatsedge; [12],0
same,Ducksalad plant response rating,duck salad; [9],0
same,"Ducksalad plant response rating (0 to 10 scale, 0 is no effect, 10 is complete control)",duck salad; [10],0
same,Ducksalad plant response rating,duck salad; [11],0
same,Ducksalad plant response rating,duck salad; [12],0
